# pIC50: −log10 of the molar value.
# Biological target: human plasma kallikrein (Homo sapiens (Human), UniProt P03952)
# Experiment: In vitro enzyme inhibition of human plasma kallikrein (PFR-AMC cleavage)
# Format: biochemical
# Conditions: Pro-Phe-Arg-AMC substrate, 37° C., read-out: hPK IC50
# Experimental: The ability of the compounds disclosed herein to inhibit human plasma kallikrein activity was quantified according to the procedures below.
# A 10 mM solution of the test compound was made in DMSO. […] A control tube containing only DMSO is included. 16 μL of each compound test solution was combined with 384 μL of assay buffer (50 mM Tris-HCl pH 7.5, 150 mM NaCl, 0.01% Triton X-100) to yield a “4× test compound buffer stock”.
# These solutions are hereby referred to as 4× hPK and 2×PFR-AMC, respectively.
# 50 μL was removed from this mixture and placed into duplicate wells on a Microfluor 1Black U-bottom microtiter plate (Thermo Scientific). This plate was incubated for 5 minutes at 37° C. To each well, 50 μL of pre-warmed 2×PFR-AMC was added to start the enzymatic reaction. Cleavage of PFR-AMC was monitored in a Biotek Synergy H4 reader set at 37° C. Readings are taken every 43 seconds for 1 hour. […] The IC50 is calculated using the Gen5 (Biotek Instruments).
# The ability of the compounds in Table 3 to inhibit human plasma kallikrein activity was determined.
# Sequence of human plasma kallikrein (P03952 391-638): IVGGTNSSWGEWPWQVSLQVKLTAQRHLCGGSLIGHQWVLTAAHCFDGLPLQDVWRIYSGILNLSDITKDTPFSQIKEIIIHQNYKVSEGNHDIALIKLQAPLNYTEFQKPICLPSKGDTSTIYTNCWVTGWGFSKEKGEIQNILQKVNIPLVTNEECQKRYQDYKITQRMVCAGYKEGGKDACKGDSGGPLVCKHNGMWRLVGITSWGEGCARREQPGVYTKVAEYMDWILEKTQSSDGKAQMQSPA
# Sequence of human plasma kallikrein (P03952 20-390 partner): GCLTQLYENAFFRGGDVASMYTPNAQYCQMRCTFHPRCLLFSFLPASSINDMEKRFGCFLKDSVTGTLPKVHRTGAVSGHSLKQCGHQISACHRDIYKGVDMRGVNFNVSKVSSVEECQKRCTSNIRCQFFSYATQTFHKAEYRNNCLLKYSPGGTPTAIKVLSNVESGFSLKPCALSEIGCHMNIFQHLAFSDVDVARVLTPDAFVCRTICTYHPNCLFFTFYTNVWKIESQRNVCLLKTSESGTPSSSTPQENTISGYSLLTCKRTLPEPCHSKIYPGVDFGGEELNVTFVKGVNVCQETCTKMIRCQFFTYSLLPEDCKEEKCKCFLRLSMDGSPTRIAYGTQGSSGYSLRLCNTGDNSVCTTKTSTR
row,Compound,pIC50
1,"Cc1cc(N)nc(C)c1CNC(=O)c1ccnc(Cc2ccc3ncc(C(N)=O)cc3c2)c1 [Example 250, 6-((4-(((6-amino-2,4-dimethylpyridin-3-yl)methyl)carbamoyl)pyridin-2-yl)methyl)quinoline-3-carboxamide]",6.00 to 7.00
2,"Cc1nc(N)ccc1C(C)NC(=O)c1ccnc(Cc2ccc3ncc(Cl)cc3c2)c1 (stereo not shown) [Example 237, N-(1-(6-amino-2-methylpyridin-3-yl)ethyl)-2-((3-chloroquinolin-6-yl)methyl)isonicotinamide]",5.00 to 6.00
3,"O=C(NCc1cc2c(Cl)c[nH]c2cc1F)c1ccnc(Cc2ccc3ncc(N4CCNCC4)cc3c2)c1 [Example 313, N-((3-chloro-6-fluoro-1H-indol-5-yl)methyl)-2-((3-(piperazin-1-yl)quinolin-6-yl)methyl)isonicotinamide]",5.00 to 6.00
4,"O=C(NCc1n[nH]c2ccc(Cl)cc12)c1ccnc(Cc2ccc3ncc(N4CCOCC4)cc3c2)c1 [Example 295, N-((5-chloro-1H-indazol-3-yl)methyl)-2-((3-morpholinoquinolin-6-yl)methyl)isonicotinamide]",5.00 to 6.00
5,"CCc1cnc2ccc(Cc3cc(C(=O)NCc4cc5c(Cl)c[nH]c5cc4F)ccn3)cc2c1 [Example 280, N-((3-chloro-6-fluoro-1H-indol-5-yl)methyl)-2-((3-ethylquinolin-6-yl)methyl)isonicotinamide]",> 7.00
6,"O=C(NCc1ccc2[nH]cc(Cl)c2c1F)c1ccnc(Cc2ccc3ncc(N4CCCC4)cc3c2)c1 [Example 311, N-((3-chloro-4-fluoro-1H-indol-5-yl)methyl)-2-((3-(pyrrolidin-1-yl)quinolin-6-yl)methyl)isonicotinamide]",6.00 to 7.00
7,"NCc1ccc(CNC(=O)c2ccnc(Cc3ccc4ncc(Cl)cc4c3)c2)cn1 [Example 169, N-((6-(aminomethyl)pyridin-3-yl)methyl)-2-((3-chloroquinolin-6-yl)methyl)isonicotinamide]",< 5.00
8,"Cc1cc2[nH]cc(Cl)c2cc1CNC(=O)c1ccnc(Cc2ccc3ncc(Cl)cc3c2)c1 [Example 190, N-((3-chloro-6-methyl-1H-indol-5-yl)methyl)-2-((3-chloroquinolin-6-yl)methyl)isonicotinamide]",6.00 to 7.00
9,"Nc1cnc2ccc(Cc3cc(C(=O)NCc4cnc5[nH]cc(Cl)c5c4)ccn3)cc2c1 [Example 300, 2-((3-aminoquinolin-6-yl)methyl)-N-((3-chloro-1H-pyrrolo[2,3-b]pyridin-5-yl)methyl)isonicotinamide]",5.00 to 6.00
10,"Cc1cc(N)nc(C)c1CNC(=O)c1ccnc(Cc2ccc3ncc(C(C)O)cc3c2)c1 (stereo not shown) [Example 262, N-((6-amino-2,4-dimethylpyridin-3-yl)methyl)-2-((3-(1-hydroxyethyl)quinolin-6-yl)methyl)isonicotinamide]",> 7.00
11,"CCc1cnc2ccc(Cc3cc(C(=O)NCc4ccc(N)nc4C)ccn3)cc2c1 [Example 285, N-((6-amino-2-methylpyridin-3-yl)methyl)-2-((3-ethylquinolin-6-yl)methyl)isonicotinamide]",> 7.00
12,"Cc1cc(N)nc(C)c1CNC(=O)c1ccnc(Cc2cnc3[nH]c(Cl)cc3c2)c1 [Example 150, N-((6-amino-2,4-dimethylpyridin-3-yl)methyl)-2-((2-chloro-1H-pyrrolo[2,3-b]pyridin-5-yl)methyl)isonicotinamide]",6.00 to 7.00
13,"O=C(NCc1cc2c(Cl)c[nH]c2cc1F)c1ccnc(Cc2ccc3ncc(N4CCCCC4)cc3c2)c1 [Example 302, N-((3-chloro-6-fluoro-1H-indol-5-yl)methyl)-2-((3-(piperidin-1-yl)quinolin-6-yl)methyl)isonicotinamide]",5.00 to 6.00
14,"O=C(NCc1ccc2ncc(Cl)cn12)c1ccnc(Cc2ccc3ncc(Cl)cc3c2)c1 [Example 206, N-((3-chloropyrrolo[1,2-a]pyrimidin-6-yl)methyl)-2-((3-chloroquinolin-6-yl)methyl)isonicotinamide]",< 5.00
15,"Nc1cnc2ccc(Cc3cc(C(=O)NCc4ccc5[nH]cc(Cl)c5c4F)ccn3)cc2c1 [Example 301, 2-((3-aminoquinolin-6-yl)methyl)-N-((3-chloro-4-fluoro-1H-indol-5-yl)methyl)isonicotinamide]",6.00 to 7.00
16,"Cc1n[nH]c2ncc(CNC(=O)c3ccnc(Cc4ccc5ncc(Cl)cc5c4)c3)cc12 [Example 266, 2-((3-chloroquinolin-6-yl)methyl)-N-((3-methyl-1H-pyrazolo[3,4-b]pyridin-5-yl)methyl)isonicotinamide]",5.00 to 6.00
17,"COc1cnc2ccc(Cc3cc(C(=O)NCc4ccc(N)nc4C)ccn3)cc2c1 [Example 265, N-(6-amino-2-methyl-pyridin-3-ylmethyl)-2-(3-methoxy-quinolin-6-ylmethyl)-isonicotinamide]",> 7.00

row,Compound,pIC50
1,"O=C(NCc1n[nH]c2ccc(Cl)cc12)c1ccnc(Cc2ccc3ncc(N4CCNCC4)cc3c2)c1 [Example 312, N-((5-chloro-1H-indazol-3-yl)methyl)-2-((3-(piperazin-1-yl)quinolin-6-yl)methyl)isonicotinamide]",5.00 to 6.00
2,"O=C(NCc1ccc2cnc(C(F)(F)F)n2c1)c1ccnc(Cc2ccc3ncc(Cl)cc3c2)c1 [Example 185, 2-((3-chloroquinolin-6-yl)methyl)-N-((3-(trifluoromethyl)imidazo[1,5-a]pyridin-6-yl)methyl)isonicotinamide]",< 5.00
3,"Cc1cnc2c(C(C)(C)O)cc(Cc3cc(C(=O)NCc4c(C)cc(N)nc4C)ccn3)cc2c1 [Example 318, N-((6-amino-2,4-dimethylpyridin-3-yl)methyl)-2-((8-(2-hydroxypropan-2-yl)-3-methylquinolin-6-yl)methyl)isonicotinamide]",> 7.00
4,"Cc1cc(N)nc(C)c1CNC(=O)c1ccnc(Cc2cc3cc(Cl)ccc3[nH]2)c1 [Example 147, N-((6-amino-2,4-dimethylpyridin-3-yl)methyl)-2-((5-chloro-1H-indol-2-yl)methyl)isonicotinamide]",> 7.00
5,"N-(6-amino-2,4-dimethyl-pyridin-3-ylmethyl)-2-(2-cyano-quinolin-6-ylmethyl)-isonicotinamide [Example 131]",> 7.00
6,"O=C(NCc1cnc2ncc(Cl)cn12)c1ccnc(Cc2ccc3ncc(Cl)cc3c2)c1 [Example 256, N-((6-chloroimidazo[1,2-a]pyrimidin-3-yl)methyl)-2-((3-chloroquinolin-6-yl)methyl)isonicotinamide]",< 5.00
7,"O=C(NCc1cnc2[nH]cc(Cl)c2c1)c1ccnc(Cc2ccc3ncc(N4CCCCC4)cc3c2)c1 [Example 306, N-((3-chloro-1H-pyrrolo[2,3-b]pyridin-5-yl)methyl)-2-((3-(piperidin-1-yl)quinolin-6-yl)methyl)isonicotinamide]",5.00 to 6.00
8,"Cc1nc2[nH]cc(Cl)c2cc1CNC(=O)c1ccnc(Cc2ccc3ncc(Cl)cc3c2)c1 [Example 191, N-((3-chloro-6-methyl-1H-pyrrolo[2,3-b]pyridin-5-yl)methyl)-2-((3-chloroquinolin-6-yl)methyl)isonicotinamide]",> 7.00
9,"Cc1nc(N)ccc1CNC(=O)c1cc(Cc2cnc3ncc(Cl)cc3c2)ncc1C#N [Example 216, N-((6-amino-2-methylpyridin-3-yl)methyl)-2-((6-chloro-1,8-naphthyridin-3-yl)methyl)-5-cyanoisonicotinamide]",6.00 to 7.00
10,"Cc1cc(C)c(CNC(=O)c2ccnc(Cc3ccc4ncc(Cl)cc4c3)c2)c(C)n1 [Example 194, 2-((3-chloroquinolin-6-yl)methyl)-N-((2,4,6-trimethylpyridin-3-yl)methyl)isonicotinamide]",5.00 to 6.00
11,"Cc1cc(N)nc(C)c1CNC(=O)c1ccnc(Cc2cc3cc(C(F)(F)F)ccc3[nH]2)c1 [Example 151, N-((6-amino-2,4-dimethylpyridin-3-yl)methyl)-2-((5-(trifluoromethyl)-1H-indol-2-yl)methyl)isonicotinamide]",6.00 to 7.00
12,"CC1=CC2C=NN(Cc3cc(C(=O)NCc4c(C)cc(N)nc4C)ccn3)C2C=C1 (stereo not shown) [Example 201, N-((6-amino-2,4-dimethylpyridin-3-yl)methyl)-2-((5-methyl-3a,7a-dihydro-1H-indazol-1-yl)methyl)isonicotinamide]",> 7.00
13,"Cc1nc2c(cc1CNC(=O)c1ccnc(Cc3ccc4ncc(C(F)(F)F)cc4c3)c1)CCN2 [Example 162, N-((6-methyl-2,3-dihydro-1H-pyrrolo[2,3-b]pyridin-5-yl)methyl)-2-((3-(trifluoromethyl)quinolin-6-yl)methyl)isonicotinamide]",6.00 to 7.00
14,"Cc1nc(N)ccc1CNC(=O)c1ccnc(Cc2cnc3ncc(Cl)cc3c2)c1 [Example 205, N-((6-amino-2-methylpyridin-3-yl)methyl)-2-((6-chloro-1,8-naphthyridin-3-yl)methyl)isonicotinamide]",> 7.00
15,"O=C(NCc1c[nH]c2ncc(Cl)cc12)c1ccnc(Cc2ccc3ncc(Cl)cc3c2)c1 [Example 269, N-((5-chloro-1H-pyrrolo[2,3-b]pyridin-3-yl)methyl)-2-((3-chloroquinolin-6-yl)methyl)isonicotinamide]",5.00 to 6.00
16,"NCc1ccc(CNC(=O)c2ccnc(Cc3ccc4ncc(Cl)cc4c3)c2)cc1 [Example 168, N-(4-(aminomethyl)benzyl)-2-((3-chloroquinolin-6-yl)methyl)isonicotinamide]",6.00 to 7.00
17,"Cc1nc(NCCO)ccc1CNC(=O)c1ccnc(Cc2ccc3ncc(Cl)cc3c2)c1 [Example 252, 2-((3-chloroquinolin-6-yl)methyl)-N-((6-((2-hydroxyethyl)amino)-2-methylpyridin-3-yl)methyl)isonicotinamide]",< 5.00

# Reference: patent US10023557B2 (LifeSci Pharmaceuticals, Inc., priority 2015, dated 2018)
